Measurements taken from patent US20260060250A1, “HERBICIDAL PYRIDONE DERIVATIVES” (SYNGENTA CROP PROTECTION AG, priority 2022, published 2026).

Assays:
Format in all cases: in vivo
Conditions in all cases: evaluated after 13 days
[1] = tested on: Amaranthus retroflexus (AMARE); assay: Pre-emergence Test (Table B1)
[2] = tested on: Amaranthus palmeri (AMAPA); assay: Pre-emergence Test (Table B1)
Zea mays (ZEAMX) [3] = assay: Post-emergence Test (Table B2)
Outline: (§1)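 Percentage damage scored 13 days after spraying. Seeds sown in pots, glasshouse 24/16 °C, 14 h light, 65% RH. Spray: acetone/water 50:50 + 0.5% Tween 20; 1000 g/ha unless stated otherwise.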

[4] = tested on: Echinochloa crus-galli (ECHCG); assay: Post-emergence Test (Table B2)
Outline: as §1

[5] = tested on: Ipomoea hederacea (IPOHE); assay: Post-emergence Test (Table B2)
Outline: as §1

Setaria faberi (SETFA) [6] = assay: Pre-emergence Test (Table B1)
[7] = tested on: Ipomoea hederacea (IPOHE); assay: Pre-emergence Test (Table B1)
[8] = tested on: Amaranthus retroflexus (AMARE); assay: Post-emergence Test (Table B2)
Outline: as §1

Setaria faberi (SETFA) [9] = assay: Post-emergence Test (Table B2)
Outline: as §1

[10] = tested on: Amaranthus palmeri (AMAPA); assay: Post-emergence Test (Table B2)
Outline: as §1

Zea mays (ZEAMX) [11] = assay: Pre-emergence Test (Table B1); parameters: key: 5=81-100%; 4=61-80%; 3=41-60%; 2=21-40%; 1=0-20%; 0=inactive
[12] = tested on: Echinochloa crus-galli (ECHCG); assay: Pre-emergence Test (Table B1)
[13] = lower rate of 250 g per hectare

Structure (SMILES)	percentage damage caused to the plant, AMARE ([1]; 1000 g/ha)	percentage damage caused to the plant, AMAPA ([2]; 1000 g/ha)	percentage damage caused to the plant, ZEAMX (Zea mays (ZEAMX) [3]; 1000 g/ha)	percentage damage caused to the plant, ECHCG ([4]; 1000 g/ha)	percentage damage caused to the plant, IPOHE ([5]; 1000 g/ha)	percentage damage caused to the plant, SETFA (Setaria faberi (SETFA) [6]; 1000 g/ha)	percentage damage caused to the plant, IPOHE ([7]; 1000 g/ha)	percentage damage caused to the plant, AMARE ([8]; 1000 g/ha)	percentage damage caused to the plant, SETFA (Setaria faberi (SETFA) [9]; 1000 g/ha)	percentage damage caused to the plant, AMAPA ([10]; 1000 g/ha)	percentage damage caused to the plant, ZEAMX (Zea mays (ZEAMX) [11]; 1000 g/ha)	percentage damage caused to the plant, ECHCG ([12]; 1000 g/ha)	further results
C=CC(C)OC(=O)c1cc(-c2c(C)n(CC)c(-c3ccc(Cl)c(Cl)c3)c(C(=O)O)c2=O)c(F)cc1Cl (stereo not drawn) [Compound 21, 5-[4-chloro-2-fluoro-5-(1-methylallyloxycarbonyl)phenyl]-2-(3,4-dichlorophenyl)-1-ethyl-6-methyl-4-oxo-pyridine-3-carboxylic acid]	5 (5=81-100%)	5 (5=81-100%)	2 (2=21-40%)	4 (4=61-80%)	3 (3=41-60%)	2 (2=21-40%)	3 (3=41-60%)	5 (5=81-100%)	3 (3=41-60%)	5 (5=81-100%)	0	4 (4=61-80%)	
CC#CC(C)OC(=O)c1cc(-c2c(C)n(CC)c(-c3ccc(Cl)c(Cl)c3)c(C(=O)O)c2=O)c(F)cc1Cl (stereo not drawn) [Compound 22, 5-[4-chloro-2-fluoro-5-(1-methylbut-2-ynoxycarbonyl)phenyl]-2-(3,4-dichlorophenyl)-1-ethyl-6-methyl-4-oxo-pyridine-3-carboxylic acid]													percentage damage caused to the plant, AMARE [1, 13]: 5 (5=81-100%); percentage damage caused to the plant, AMAPA [2, 13]: 5 (5=81-100%); percentage damage caused to the plant, ZEAMX (Zea mays (ZEAMX) [3]; [13]): 3 (3=41-60%); percentage damage caused to the plant, ECHCG [4, 13]: 5 (5=81-100%); percentage damage caused to the plant, IPOHE [5, 13]: 5 (5=81-100%); percentage damage caused to the plant, SETFA (Setaria faberi (SETFA) [6]; [13]): 1 (1=0-20%); percentage damage caused to the plant, IPOHE [7, 13]: 1 (1=0-20%); percentage damage caused to the plant, AMARE [8, 13]: 5 (5=81-100%); percentage damage caused to the plant, SETFA (Setaria faberi (SETFA) [9]; [13]): 5 (5=81-100%); percentage damage caused to the plant, AMAPA [10, 13]: 5 (5=81-100%); percentage damage caused to the plant, ZEAMX (Zea mays (ZEAMX) [11]; [13]): 1 (1=0-20%); percentage damage caused to the plant, ECHCG [12, 13]: 1 (1=0-20%)
CCn1c(C)c(-c2cc(C(=O)OC3CCC3)c(Cl)cc2F)c(=O)c(C(=O)O)c1-c1ccc(Cl)c(Cl)c1 [Compound 23, 5-[4-chloro-5-(cyclobutoxycarbonyl)-2-fluoro-phenyl]-2-(3,4-dichlorophenyl)-1-ethyl-6-methyl-4-oxo-pyridine-3-carboxylic acid]	5 (5=81-100%)	5 (5=81-100%)	2 (2=21-40%)	4 (4=61-80%)	2 (2=21-40%)	5 (5=81-100%)	4 (4=61-80%)	5 (5=81-100%)	5 (5=81-100%)	5 (5=81-100%)	2 (2=21-40%)	5 (5=81-100%)	
